# According to PMC9917099, “The Mycotoxin Patulin Inhibits the Mitochondrial Carnitine/Acylcarnitine Carrier (SLC25A20) by Interaction with Cys136 Implications for Human Health” (International Journal of Molecular Sciences, 2023):
# Values joined by “and” are separate entries in the source; they are usually repeats but may differ in a detail not shown here. Equal entries are not always repeated.
# Key:
# [1] = molecular target: T1, rat CAC C-less mutant (C23V/C58V/C89S/C136V/C155V/C283S) (Rattus norvegicus, UniProt P97521, C136V/C155V/C23V/C283S/C58V/C89S); experiment: Carnitine antiport in proteoliposomes, C-less CAC mutant; type: biochemical
# T1 construct: made in house; host or cells: E. coli C0214 (pMW7, inclusion bodies)
# T1 sequence (P97521 1-301 C23V/C58V/C89S/C136V/C155V/C283S): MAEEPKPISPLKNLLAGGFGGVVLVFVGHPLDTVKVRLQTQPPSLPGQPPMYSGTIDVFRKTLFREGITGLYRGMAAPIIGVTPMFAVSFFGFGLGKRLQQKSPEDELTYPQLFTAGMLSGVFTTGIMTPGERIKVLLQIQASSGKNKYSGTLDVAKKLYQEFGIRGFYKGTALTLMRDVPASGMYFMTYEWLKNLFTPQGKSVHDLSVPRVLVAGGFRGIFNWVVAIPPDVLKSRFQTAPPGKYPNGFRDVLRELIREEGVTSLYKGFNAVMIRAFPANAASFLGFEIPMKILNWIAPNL
# Procedure: To shed light on the interaction between PAT and CAC and verify if specific Cys residues were involved, transport experiments on the recombinant rat and human WT CAC and CAC’s rat Cys mutants were performed. As in the case of the native protein, transport activities were measured as [^3H]-carnitine/carnitine antiport in proteoliposomes. […] The PAT inhibition of the WT recombinant protein was only slightly greater compared to the native protein, although compounds and other molecular systems that affect the mycotoxin binding to the native CAC were absent (see above). For identifying the residues involved in the PAT interaction, site-directed Cys mutants were tested for inhibition (Figure 2). […] The choice of this last mutant was due to the proximity of C155 to C136 during some steps of the substrate translocation mechanism. […]
# (§1) For the transport assay, 550 μL of proteoliposomes were passed through a Sephadex G-75 column in order to remove the external substrate. […] After finishing the transport reaction, the external radiolabel substrate was removed by gel filtration chromatography (Sephadex G-75), and the intraliposomal radioactivity was measured by liquid scintillation. Transport was measured at 25 °C. […] Transport rates were measured in 10 min, i.e., within the initial linear range of the time course.
# recombinant human WT CAC = molecular target: T2, recombinant human WT CAC (Homo sapiens, UniProt O43772); experiment: [3H]-carnitine/carnitine antiport in proteoliposomes with recombinant human WT CAC; type: biochemical; details: PAT 30 min, read-out: IC50 of CAC WT inhibition
# T2 construct: made in house; host or cells: E. coli C0214 (pMW7, inclusion bodies)
# T2 sequence (O43772 1-301): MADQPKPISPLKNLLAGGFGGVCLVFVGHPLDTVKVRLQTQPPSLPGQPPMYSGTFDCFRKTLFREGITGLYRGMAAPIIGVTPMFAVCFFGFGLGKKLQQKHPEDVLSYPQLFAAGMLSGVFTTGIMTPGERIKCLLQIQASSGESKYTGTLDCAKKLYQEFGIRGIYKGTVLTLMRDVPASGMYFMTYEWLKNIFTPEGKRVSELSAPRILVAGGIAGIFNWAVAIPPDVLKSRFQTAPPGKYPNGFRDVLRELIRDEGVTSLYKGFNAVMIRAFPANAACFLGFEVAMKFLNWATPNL
# Procedure: To shed light on the interaction between PAT and CAC and verify if specific Cys residues were involved, transport experiments on the recombinant rat and human WT CAC and CAC’s rat Cys mutants were performed. As in the case of the native protein, transport activities were measured as [^3H]-carnitine/carnitine antiport in proteoliposomes. […] The PAT inhibition of the WT recombinant protein was only slightly greater compared to the native protein, although compounds and other molecular systems that affect the mycotoxin binding to the native CAC were absent (see above). For identifying the residues involved in the PAT interaction, site-directed Cys mutants were tested for inhibition (Figure 2). […]
# Figure 2 Dose-response analysis of the PAT inhibition of the CAC recombinant proteins. […] The data are expressed as a percentage of the controls (no PAT addition) and are means ± SD of three independent experiments. […]
# as §1
# [2] = Stability of PAT solution stored at room temperature, read out as inhibition of recombinant WT CAC transport; type: physicochemical; details: 25 and 50 µM PAT, stored at r.t., 24 and 72 h
# Description: Figure 3A reports the interaction of PAT with the reconstituted WT protein. The inhibition observed after the pretreatment of proteoliposomes with the mycotoxin was not reversed by DTE, confirming the formation of an irreversible covalent bond between CAC and PAT also with the purified recombinant protein (see above Figure 1B). For evaluating the stability of the drug following prolonged storage, we measured the inhibition of the transport activity of WT adding to the samples, at various time, the same PAT solution stored at room temperature (r.t.).
# Figure 3 (A) Reversal of PAT inhibition on recombinant protein by DTE. The carnitine homo-exchange transport activity was measured, as described in Materials and Methods, adding 0.1 mM [^3H] carnitine to proteoliposomes reconstituted with the recombinant WT CAC containing 15 mM internal carnitine in the absence or presence of 50 μM PAT, added 30 min before the labelled substrate. 5 mM dithioerythritol (DTE) was added 1 min before the transport assay in a control and PAT treated aliquot, respectively. […] Proteoliposomes reconstituted with the WT CAC were incubated by the same PAT solution (25 and 50 µM) after 0.5 h, 24 h and 72 h (white, grey and black bars, respectively) and then the transport activity was measured by adding 0.1 mM [^3H]-carnitine and stopped after 30 min as described in Materials and Methods.
compound,measurement,setting,value
"O=C1C=C2C(=CCOC2O)O1 (stereo not drawn) [PAT, 4-hydroxy-4H-furo [3,2c] pyran-2 [6H] -one]",effect on transport activity,[1],no effect
same,IC50,recombinant human WT CAC,50 µM and ~50 µM
same,reactivity towards CAC of stored PAT solution,[2],does not change
